{"source": "patent US8907089B2", "about": "“Fused heterocyclic ring derivative and use thereof” (Takeda Pharmaceutical Company Limited, priority 2009, dated 2014)", "test_system": "NIH-3T3/Gli reporter cells (Hedgehog signal, Gli reporter luciferase; Smo inhibitory action)", "assay": "Gli reporter luciferase assay in NIH-3T3/Gli reporter cells stimulated with mouse Shh-N end fragment", "type": "cell-based", "conditions": "NIH3T3; 1 μM compound; NIH-3T3/Gli reporter cells with mouse Shh-N end fragment culture supernatant, 48 hr; luciferase activity, control without compound as 100; read-out: inhibition rate (%) at 1 μM", "excerpt": "Inhibition of the Hedgehog signal transduction system can be measured, for example, by quantifying a decrease in the expression level of a reporter gene connected to the downstream of the Gli binding site based on the fluorescence intensity according to the following Experimental Example 1. Alternatively, it can be measured by quantifying the expression of Gli-1 mRNA in a cell extract by quantitative PCR method and the like. A compound that inhibits Hedgehog signal targets Smo, which can be confirmed, for example, by binding fluorescence-labeled Cyclopamine and a test compound to cells expressing Smo, measuring the fluorescence level of the cell, and comparing the value with that without addition of a test compound to find a decrease.\nGli reporter plasmid was constructed by inserting 8×Gli-binding site and chicken 8-crystalline promoter into the upstream of luc+ of pGL3 (Promega).\nprepared in reference to the base sequence described in GenBank accession No.; X02187, and chicken genome DNA (Clontech) as a template. PCR reaction was performed using Pfu Turbo (Stratagene) and following the attached protocol. The obtained 108 bp fragment was digested with restriction enzymes BglII and HindIII, and inserted into BglII-HindIII site of pGL3 to give plasmid pGL3/δ-cry promoter.\nAs 8×Gli-binding site, a sequence containing eight 9-bp Gli bound consensus sequences (GACCACCCA) described in Yoon et al., J. Biol. Chem., vol. 273, pages 3496-3501 (1998) was prepared from synthetic DNA. That is, two synthetic DNAs,\nwere heat treated at 95° C. for 2 minutes, and incubated at 37° C. for 1 hr for annealing to give a double stranded DNA of the above-mentioned two synthetic DNAs. The obtained double stranded DNA was digested with restriction enzymes BglII and KpnI, and the obtained DNA fragment was inserted into BglII-KpnI site of pGL3/8-cry promoter to construct plasmid pGL3/8-cry promoter, 8×Gli binding site, i.e., Gli reporter plasmid. 2. Construction of plasmid for expression of mouse Shh-N end Fragment\nHEK293 cells were grown in D-MEM medium (Invitrogen) containing 10% fetal bovine serum in a 10 cm dish and pcDNA3.1/mShh-N was introduced into the cells using FuGENE6 (Roche Applied Science). Thereafter, the HEK293 cells were cultured in a carbon dioxide gas incubator at 37° C. for 24 hours, and the medium was exchanged with D-MEM medium (Invitrogen) containing 2% fetal bovine serum. After culturing for 48 hr, a culture supernatant containing recombinant type mouse Shh-N end fragment was obtained by filtration using a filter ([…]).\nUsing D-MEM (Invitrogen) containing 10% fetal bovine serum, expression plasmid pcDNA3.1 and Gli reporter plasmid (pGL3/8-cry promoter, 8×Gli binding site) produced by the method of Experimental Example 1 were introduced into NIH-3T3 cells grown in a 10 cm dish by the use of FuGENE6 (Roche Applied Science).\nAfter culture for 24 hr, the cells were recovered, suspended in D-MEM medium containing 10% fetal bovine serum and supplemented with Geneticin (Life Technologies Oriental, Inc.) to a final concentration of 500 μg/ml, diluted to 10^4 cells/ml, plated on a 96 well plate, and cultured in a carbon dioxide gas incubator at 37° C. to give Geneticin resistant transformed cell line.\nThe obtained transformed cell line was cultured in a 96 well plate, mouse Shh-N end fragment obtained in Experimental Example 3 was added, and NIH-3T3/Gli reporter cell, which is a cell line capable of induction of luciferase expression, was selected.\nNIH-3T3/Gli reporter cells cultured in D-MEM (Invitrogen) containing 10% fetal bovine serum were plated in a 96 well white plate at 1×10^4 cells/well, and cultured overnight in a carbon dioxide gas incubator at 37° C. The medium was removed, a compound (50 μl) and culture supernatant of mouse Shh-N end fragment-expressing HEK293 (D-MEM medium containing 2% fetal bovine serum, 50 μl) were added, and the cells were cultured for 48 hr in a carbon dioxide gas incubator at 37° C. […]"}
{"compound": "CCc1cc2c(c(OC(C)C)c(C(=O)NC3CCN(C(=O)CO)CC3)n2C)c(=O)n1-c1ccc(C(F)(F)F)cc1", "note": "[Example 11, 6-ethyl-N-[1-(hydroxyacetyl)piperidin-4-yl]-1-methyl-3-(1-methylethoxy)-4-oxo-5-[4-(trifluoromethyl)phenyl]-4,5-dihydro-1H-pyrrolo[3,2-c]pyridine-2-carboxamide]", "values": [{"measurement": "inhibition at 1 µM", "value": 96, "unit": "%"}]}
{"compound": "CCc1cc2c(c(OC(C)C)c(C(=O)NC3CCN(C(=O)CO)CC3)n2C)c(=O)n1-c1ccc(F)cc1", "note": "[Example 22, 6-ethyl-5-(4-fluorophenyl)-N-[1-(hydroxyacetyl)piperidin-4-yl]-1-methyl-3-(1-methylethoxy)-4-oxo-4,5-dihydro-1H-pyrrolo[3,2-c]pyridine-2-carboxamide]", "values": [{"measurement": "inhibition at 1 µM", "value": 97, "unit": "%"}]}
{"compound": "CCOc1c(C(=O)NC2CCN(C(=O)CO)CC2)n(C)c2cc(CC)n(-c3ccc(C(F)(F)F)cc3)c(=O)c12", "note": "[Example 10, 3-ethoxy-6-ethyl-N-[1-(hydroxyacetyl)piperidin-4-yl]-1-methyl-4-oxo-5-[4-(trifluoromethyl)phenyl]-4,5-dihydro-1H-pyrrolo[3,2-c]pyridine-2-carboxamide]", "values": [{"measurement": "inhibition at 1 µM", "value": 96, "unit": "%"}]}
{"compound": "CCOc1c(C(=O)NC2CCN(C(=O)CO)CC2)n(C)c2cc(CC)n(-c3cccc(F)c3)c(=O)c12", "note": "[Example 16, 3-ethoxy-6-ethyl-5-(3-fluorophenyl)-N-[1-(hydroxyacetyl)piperidin-4-yl]-1-methyl-4-oxo-4,5-dihydro-1H-pyrrolo[3,2-c]pyridine-2-carboxamide]", "values": [{"measurement": "inhibition at 1 µM", "value": 96, "unit": "%"}]}
{"compound": "CCc1cc2c(c(OCC(F)(F)F)c(C(=O)NC3CCN(C(=O)CO)CC3)n2C)c(=O)n1-c1ccccc1", "note": "[Example 1, 6-ethyl-N-[1-(hydroxyacetyl)piperidin-4-yl]-1-methyl-4-oxo-5-phenyl-3-(2,2,2-trifluoroethoxy)-4,5-dihydro-1H-pyrrolo[3,2-c]pyridine-2-carboxamide]", "values": [{"measurement": "inhibition at 1 µM", "value": 98, "unit": "%"}]}
{"compound": "CCc1cc2c(c(OCC(F)(F)F)c(C(=O)NC3CCN(C(=O)CO)CC3)n2C)c(=O)n1-c1ccc(C(F)(F)F)cc1", "note": "[Example 9, 6-ethyl-N-[1-(hydroxyacetyl)piperidin-4-yl]-1-methyl-4-oxo-3-(2,2,2-trifluoroethoxy)-5-[4-(trifluoromethyl)phenyl]-4,5-dihydro-1H-pyrrolo[3,2-c]pyridine-2-carboxamide]", "values": [{"measurement": "inhibition at 1 µM", "value": 97, "unit": "%"}]}
{"compound": "CCc1cc2c(c(OCC(F)(F)F)c(C(=O)NC3CCN(C(=O)CO)CC3)n2C)c(=O)n1-c1ccc(F)cc1", "note": "[Example 20, 6-ethyl-5-(4-fluorophenyl)-N-[1-(hydroxyacetyl)piperidin-4-yl]-1-methyl-4-oxo-3-(2,2,2-trifluoroethoxy)-4,5-dihydro-1H-pyrrolo[3,2-c]pyridine-2-carboxamide]", "values": [{"measurement": "inhibition at 1 µM", "value": 96, "unit": "%"}]}
{"compound": "CCc1cc2c(c(OC(C)C)c(C(=O)NC3CCN(C(=O)CO)CC3)n2C)c(=O)n1-c1ccc(OC)cc1", "note": "[Example 14, 6-ethyl-N-[1-(hydroxyacetyl)piperidin-4-yl]-5-(4-methoxyphenyl)-1-methyl-3-(1-methylethoxy)-4-oxo-4,5-dihydro-1H-pyrrolo[3,2-c]pyridine-2-carboxamide]", "values": [{"measurement": "inhibition at 1 µM", "value": 96, "unit": "%"}]}
{"compound": "CCOc1c(C(=O)NC2CCN(C(=O)CO)CC2)n(C)c2cc(CC)n(-c3ccccc3)c(=O)c12", "note": "[Example 3, 3-ethoxy-6-ethyl-N-[1-(hydroxyacetyl)piperidin-4-yl]-1-methyl-4-oxo-5-phenyl-4,5-dihydro-1H-pyrrolo[3,2-c]pyridine-2-carboxamide]", "values": [{"measurement": "inhibition at 1 µM", "value": 97, "unit": "%"}]}
{"compound": "CCOc1c(C(=O)NC2CCN(C(=O)CO)CC2)n(C)c2cc(CC)n(-c3ccc(OC)cc3)c(=O)c12", "note": "[Example 13, 3-ethoxy-6-ethyl-N-[1-(hydroxyacetyl)piperidin-4-yl]-5-(4-methoxyphenyl)-1-methyl-4-oxo-4,5-dihydro-1H-pyrrolo[3,2-c]pyridine-2-carboxamide]", "values": [{"measurement": "inhibition at 1 µM", "value": 97, "unit": "%"}]}
{"compound": "CCOc1c(C(=O)NC2CCN(C(=O)CO)CC2)n(C)c2cc(CC)n(-c3ccc(F)cc3)c(=O)c12", "note": "[Example 21, 3-ethoxy-6-ethyl-5-(4-fluorophenyl)-N-[1-(hydroxyacetyl)piperidin-4-yl]-1-methyl-4-oxo-4,5-dihydro-1H-pyrrolo[3,2-c]pyridine-2-carboxamide]", "values": [{"measurement": "inhibition at 1 µM", "value": 96, "unit": "%"}]}
{"compound": "Cc1ccc(-n2c(C)cc3c(c(OCC(F)(F)F)c(C(=O)NC4CCN(C(=O)CO)CC4)n3C)c2=O)cc1", "note": "[Example 8, N-[1-(hydroxyacetyl)piperidin-4-yl]-1,6-dimethyl-5-(4-methylphenyl)-4-oxo-3-(2,2,2-trifluoroethoxy)-4,5-dihydro-1H-pyrrolo[3,2-c]pyridine-2-carboxamide]", "values": [{"measurement": "inhibition at 1 µM", "value": 97, "unit": "%"}]}
{"compound": "CCc1cc2c(c(OCC(F)(F)F)c(C(=O)NC3CCN(C(=O)CO)CC3)n2C)c(=O)n1-c1cccc(F)c1", "note": "[Example 15, 6-ethyl-5-(3-fluorophenyl)-N-[1-(hydroxyacetyl)piperidin-4-yl]-1-methyl-4-oxo-3-(2,2,2-trifluoroethoxy)-4,5-dihydro-1H-pyrrolo[3,2-c]pyridine-2-carboxamide]", "values": [{"measurement": "inhibition at 1 µM", "value": 99, "unit": "%"}]}
{"compound": "CCc1cc2c(c(OC(C)C)c(C(=O)NC3CCN(C(=O)CO)CC3)n2C)c(=O)n1-c1cccc(F)c1", "note": "[Example 17, 6-ethyl-5-(3-fluorophenyl)-N-[1-(hydroxyacetyl)piperidin-4-yl]-1-methyl-3-(1-methylethoxy)-4-oxo-4,5-dihydro-1H-pyrrolo[3,2-c]pyridine-2-carboxamide]", "values": [{"measurement": "inhibition at 1 µM", "value": 95, "unit": "%"}]}
{"compound": "CCc1cc2c(c(OC(C)C)c(C(=O)NC3CCN(C(=O)CO)CC3)n2C)c(=O)n1-c1ccccc1", "note": "[Example 4, 6-ethyl-N-[1-(hydroxyacetyl)piperidin-4-yl]-1-methyl-3-(1-methylethoxy)-4-oxo-5-phenyl-4,5-dihydro-1H-pyrrolo[3,2-c]pyridine-2-carboxamide]", "values": [{"measurement": "inhibition at 1 µM", "value": 97, "unit": "%"}]}
{"compound": "CCc1cc2c(c(OCC(F)(F)F)c(C(=O)NC3CCN(C(=O)CO)CC3)n2C)c(=O)n1-c1ccc(OC)cc1", "note": "[Example 12, 6-ethyl-N-[1-(hydroxyacetyl)piperidin-4-yl]-5-(4-methoxyphenyl)-1-methyl-4-oxo-3-(2,2,2-trifluoroethoxy)-4,5-dihydro-1H-pyrrolo[3,2-c]pyridine-2-carboxamide]", "values": [{"measurement": "inhibition at 1 µM", "value": 97, "unit": "%"}]}
